Experimental data as given in patent publication US12558345B2, “CHK1/2 inhibitors for use in the treatment of neuroblastomas and/or soft tissue sarcomas” (Eli Lilly and Company, priority 2015, dated 2026).
Counter-ions that a name gives are not always drawn. Like-named read-outs stand apart in the source and are kept apart here.

How the values were obtained:
SJCRH-30 RMS xenograft = type: in vivo; settings: for % T/C: SJCRH-30, RMS
Experimental: Expand human RMS cancer cells SJCRH-30 (St. Jude Children's Research Hospital) in culture, harvest, and inject 5×10^6 cells in 200 μL of HBSS subcutaneously into the right rear flank of female athymic nude mice (20-22 g, Harlan Laboratories).
For all studies, measure tumor growth and body weight twice per week beginning on the seventh day after implantation. When tumor size reaches 150-300 mm^3, randomize animals and group into groups of 4-7 animals. Prepare test compound in an appropriate vehicle (e.g. vehicle can be 20% Captisol® in sterile water) and administer subcutaneously for three consecutive days followed by a four day dosing holiday and repeat for a minimum of four weeks. Tumor response is determined by tumor volume measurement performed twice per week during the course of treatment.
The vehicle used in this study is 20% Captisol® in sterile water and is administered subcutaneously for three consecutive days followed by a four day dosing holiday and repeated for a minimum of four weeks. […] The treatment period lasts 4 weeks.

[1] = system: CTG-0994 EWS patient-derived xenograft; test: Xenograft Tumor Model CTG-0994; type: in vivo, mouse; settings: comparator day 25, p-value <0.001
Experimental: The efficacy of 5-(5-(2-(3-aminopropoxy)-6-methoxyphenyl)-1H-pyrazol-3-ylamino)pyrazine-2-carbonitrile methanesulfonic acid monohydrate is measurable in vivo in mouse models of neuroblastomas and human pediatric and adult sarcomas. 5-(5-(2-(3-Aminopropoxy)-6-methoxyphenyl)-1H-pyrazol-3-ylamino)pyrazine-2-carbonitrile methanesulfonic acid monohydrate (10 mg/kg) can be administered subcutaneously to nude mice bearing either cell-derived xenografts (CDX) or patient-derived xenografts (PDX) of human rhabdomyosarcoma, desmoplastic small round cell tumor (DSRCT), osteosarcoma, and Ewing's sarcoma using a 3 day on, 4 day off b.i.d. dosing schedule. Tumor volume and body weight can be measured two times per week. Tumor-specific parameters can be evaluated by immumohistochemistry. […]
For all “ST” models (encompassing RMS and LMS), patient-derived xenografts are established from viable human tumor tissue and are serially passaged in animals a limited number of times to maintain tumor heterogeneity. […] Tumor response is determined by tumor volume measurement performed twice per week during the course of treatment.

[2] = system: G2M DNA damage checkpoint (pHH3) in HeLa cells; test: Doxorubicin-Induced G2M Checkpoint Abrogation HeLa Cell-Based Acumen Assay; settings: Homo sapiens, 125 nM doxorubicin 24 hours, compound seven hours, Relative EC50
Experimental: An inhibitor of CHK1 will disable the G2M DNA damage checkpoint in p53-minus tumor cells treated with the topoisomerase II inhibitor, doxorubicin. A measurement of G2M checkpoint abrogation is the phosphorylation of histone H3 on serine 10 that occurs after cells traverse the G2M checkpoint and enter mitosis. The following high content imaging assay can be used to measure the phosphorylation of histone H3 in cells. HeLa cells (purchased from ATCC) are cultured in MEM Media (Gibco™) supplemented with 10% (v/v) FBS and plated at 2000 cells per well in poly D-lysine coated clear bottom black plates (BD Biocoat Cat #3504640), 100 μL volume per well. Plates are then incubated in a cell culture incubator for 18-24 hours (37° C., 5% CO2 and 95% relative humidity). […] Plates are scanned with ACUMEN EXPLORER™ Laser-scanning fluorescence microplate cytometers using 488 nm excitation (TTP LABTECH LTC) to measure pHH3 and DNA content including 2 N, and 4 N. The pHH3 positive cells are identified by mean intensity at 519 nm from Alexa 488. […] The final readout for each population is determined by normalizing to the % of total cells producing a final assay output of % pHH3, %2 N and %4 N. 100% activity is then determined by treating cells with the maximum concentration of an inhibitor control compound at 100 nM to determine the final % activity of each compound. […]

For COc1cccc(OCCCN)c1-c1cc(Nc2cnc(C#N)cn2)n[nH]1 [Example 5, 5-(5-(2-(3-Aminopropoxy)-6-methoxyphenyl)-1H-pyrazol-3-ylamino)pyrazine-2-carbonitrile methanesulfonic acid monohydrate], the “% T/C” value (SJCRH-30 RMS xenograft; comparator day 46) was 0.1%, the “% T/C” value (SJCRH-30 RMS xenograft; comparator day 56) was 58% and the “tumor response as a single agent” value (SJCRH-30 RMS xenograft; SJCRH-30, SC three days on, four day holiday, 4 weeks, tumor regrowth occurs from day 38) was “initial complete response until day 38”. For the same compound, the “effect on acquired resistance in SJCRH30 xenografts” value (SJCRH-30 RMS xenograft; combination with doxorubicin, ifosfamide, or irinotecan) was “appears to circumvent the acquired resistance” and the “% Regression” value [1] was −79%.
In the case of COc1cccc(OCCCN)c1-c1cc(Nc2cnc(C#N)cn2)n[nH]1 [Example 2, 5-(5-(2-(3-Aminopropoxy)-6-methoxyphenyl)-1H-pyrazol-3-ylamino)pyrazine-2-carbonitrile dihydrogen chloride salt], the EC50 [2] is reported as 10.5 nM.
